The target in one assay is Human LDHA (Homo sapiens (Human), UniProt P00338). The assay is described as follows: human LDHA primary biochemical assay. Conditions: biochemical LDHA inhibitory activity, assay of Example 1; activity level classes defined in nM. The method in brief: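 Human LDHA at 2 nM with 0.06 mM NADH and 0.2 mM sodium pyruvate in 200 mM Tris HCl pH 7.4, 100 μM EDTA, 0.01% TWEEN-20 (final). NADH consumption coupled to resazurin/diaphorase (0.037 mM; 0.133 mg/mL); inhibition read by fluorescence.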

For a further assay, the system named is MiaPaCa2 cells. The assay is described as follows: cell-based HT lactate assay by colorimetric/fluorometric detection (cellular inhibition of lactate production). Conditions: Homo sapiens, MIA PaCa-2, assay of Example 6. Here is the method:
This example describes a cell-based metabolite assay by colorimetric/fluorometric detection employed in the characterization of a compound of formula (I) in an embodiment of the invention.
Cell-based HT Lactate assay is a miniaturized Biovision Lactate Colorimetric/Fluorometric Assay Kit (Cat #K607-100). The assay is roughly a 3.5 hour assay run in a 1536 plate format. Cell number optimization should be run for each cell line to achieve an optimal number in which lactate production equals roughly 90% of the standard curve range. Cell number per well optimization has been performed with the following cell lines: MiaPaCa2—500 cells/well, SNU398—500 cells/well, and P493—500 cells/well.

The structures appear in SMILES notation. Bounds are passed on as bounds.

As to `CC1CC=C(c2cc(-c3nn(-c4nc(C(=O)O)cs4)c(CC4CC4)c3Cc3ccc(S(N)(=O)=O)c(F)c3)ccc2F)CC1` (stereo not shown) [Compound 101, 2-(5-(cyclopropylmethyl)-3-(6-fluoro-4′-methyl-2′,3′,4′,5′-tetrahydro-[1,1′-biphenyl]-3-yl)-4-(3-fluoro-4-sulfamoylbenzyl)-1H-pyrazol-1-yl)thiazole-4-carboxylic acid], the IC50 was under 100 nM against Human LDHA and under 1000 nM in the assay with MiaPaCa2 cells.

Turning to `NS(=O)(=O)c1ccc(Cc2c(-c3ccc(F)c(C4=CCC(C(F)(F)F)CC4)c3)nn(-c3nc(C(=O)O)cs3)c2CC2CC2)cc1F` (stereo not shown) [Compound 102, 2-(5-(cyclopropylmethyl)-3-(6-fluoro-4′-(trifluoromethyl)-2′,3′,4′,5′-tetrahydro-[1,1′-biphenyl]-3-yl)-4-(3-fluoro-4-sulfamoylbenzyl)-1H-pyrazol-1-yl)thiazole-4-carboxylic acid], the IC50 at Human LDHA was under 100 nM; in the assay with MiaPaCa2 cells, under 1000 nM.

Take `CCC#Cc1cc(-c2nn(-c3nc(C(=O)O)cs3)c(CC3CC3)c2Cc2ccc([S+](N)(=O)[O-])c(F)c2)ccc1F` [Compound 109, 2-(3-(3-(but-1-yn-1-yl)-4-fluorophenyl)-5-(cyclopropylmethyl)-4-(3-fluoro-4-sulfamoylbenzyl)-1H-pyrazol-1-yl)thiazole-4-carboxylic acid]: in the assay on MiaPaCa2 cells, the IC50 was under 1000 nM.

With `CC(C)c1ccc(-c2cc(-c3nn(-c4nc(C(=O)O)cs4)c(CC4CC4)c3Cc3ccc(S(N)(=O)=O)c(F)c3)ccc2F)cc1` [Compound 142, 2-(5-(cyclopropylmethyl)-3-(6-fluoro-4′-isopropyl-[1,1′-biphenyl]-3-yl)-4-(3-fluoro-4-sulfamoylbenzyl)-1H-pyrazol-1-yl)thiazole-4-carboxylic acid], in the assay on MiaPaCa2 cells, the concentration for half-maximal inhibition (IC50) is under 1000 nM.

On Human LDHA, `Cc1ccc(C#Cc2cccc(-c3nn(-c4nc(C(=O)O)cs4)c(CC4CC4)c3Cc3ccc(S(N)(=O)=O)c(F)c3)n2)s1` [Compound 231, 2-(5-(cyclopropylmethyl)-4-(3-fluoro-4-sulfamoylbenzyl)-3-(6-((5-methylthiophen-2-yl)ethynyl)pyridin-2-yl)-1H-pyrazol-1-yl)thiazole-4-carboxylic acid] yielded an IC50 of under 100 nM.

On to `Cc1ccc(C#Cc2cccc(-c3nn(-c4nc(C(=O)O)cs4)c(CCC4CC4)c3Cc3ccc(S(N)(=O)=O)c(F)c3)c2)o1` [Compound 232, 2-(5-(2-cyclopropylethyl)-4-(3-fluoro-4-sulfamoylbenzyl)-3-(3-((5-methylfuran-2-yl)ethynyl)phenyl)-1H-pyrazol-1-yl)thiazole-4-carboxylic acid], for which the IC50 against Human LDHA is under 100 nM.

For the compound `Cc1ccc(C#Cc2ccc(-c3nn(-c4nc(C(=O)O)cs4)c(CC4CC4)c3Cc3ccc(S(N)(=O)=O)c(F)c3)s2)s1` [Compound 233, 2-(5-(cyclopropylmethyl)-4-(3-fluoro-4-sulfamoylbenzyl)-3-(5-((5-methylthiophen-2-yl)ethynyl)thiophen-2-yl)-1H-pyrazol-1-yl)thiazole-4-carboxylic acid], on Human LDHA, the IC50 was 100 to 1000 nM.

As for `Cc1cnc(C#Cc2cccc(-c3nn(-c4nc(C(=O)O)cs4)c(CCC4CC4)c3Cc3ccc(S(N)(=O)=O)c(F)c3)c2)s1` [Compound 234, 2-(5-(2-cyclopropylethyl)-4-(3-fluoro-4-sulfamoylbenzyl)-3-(3-((5-methylthiazol-2-yl)ethynyl)phenyl)-1H-pyrazol-1-yl)thiazole-4-carboxylic acid], the IC50 against Human LDHA is under 100 nM.

The compound `Cc1ncc(C#Cc2cccc(-c3nn(-c4nc(C(=O)O)cs4)c(CCC4CC4)c3Cc3ccc(S(N)(=O)=O)c(F)c3)c2)s1` [Compound 235, 2-(5-(2-cyclopropylethyl)-4-(3-fluoro-4-sulfamoylbenzyl)-3-(3-((2-methylthiazol-5-yl)ethynyl)phenyl)-1H-pyrazol-1-yl)thiazole-4-carboxylic acid] showed an IC50 at Human LDHA of under 100 nM.

`Cc1nc(C#Cc2cccc(-c3nn(-c4nc(C(=O)O)cs4)c(CC4CC4)c3Cc3ccc(S(N)(=O)=O)c(F)c3)c2)cs1` [Compound 236, 2-(5-(cyclopropylmethyl)-4-(3-fluoro-4-sulfamoylbenzyl)-3-(3-((2-methylthiazol-4-yl)ethynyl)phenyl)-1H-pyrazol-1-yl)thiazole-4-carboxylic acid] gave an IC50 against Human LDHA of under 100 nM.

For `Cc1ccc(C#Cc2csc(-c3nn(-c4nc(C(=O)O)cs4)c(CC4CC4)c3Cc3ccc(S(N)(=O)=O)c(F)c3)c2)s1` [Compound 237, 2-(5-(cyclopropylmethyl)-4-(3-fluoro-4-sulfamoylbenzyl)-3-(4-((5-methylthiophen-2-yl)ethynyl)thiophen-2-yl)-1H-pyrazol-1-yl)thiazole-4-carboxylic acid], the IC50 against Human LDHA was in the range of 100 to 1000 nM.

At Human LDHA, `Cc1cc(C#Cc2cccc(-c3nn(-c4nc(C(=O)O)cs4)c(CCC4CC4)c3Cc3ccc(S(N)(=O)=O)c(F)c3)c2)c(C)s1` [Compound 238, 2-(5-(2-cyclopropylethyl)-3-(3-((2,5-dimethylthiophen-3-yl)ethynyl)phenyl)-4-(3-fluoro-4-sulfamoylbenzyl)-1H-pyrazol-1-yl)thiazole-4-carboxylic acid] yielded an IC50 of 100 to 1000 nM.

On to `Cc1cc(C#Cc2cccc(-c3nn(-c4nc(C(=O)O)cs4)c(CCC4CC4)c3Cc3ccc(S(N)(=O)=O)c(F)c3)c2)cs1` [Compound 239, 2-(5-(2-cyclopropylethyl)-4-(3-fluoro-4-sulfamoylbenzyl)-3-(3-((5-methylthiophen-3-yl)ethynyl)phenyl)-1H-pyrazol-1-yl)thiazole-4-carboxylic acid], for which the IC50 on Human LDHA lay within 100 to 1000 nM.

Take `Cc1cc(C#Cc2cccc(-c3nn(-c4nc(C(=O)O)cs4)c(CC4CC4)c3Cc3ccc(S(N)(=O)=O)c(F)c3)c2)cs1` [Compound 240, 2-(5-(cyclopropylmethyl)-4-(3-fluoro-4-sulfamoylbenzyl)-3-(3-((5-methylthiophen-3-yl)ethynyl)phenyl)-1H-pyrazol-1-yl)thiazole-4-carboxylic acid]: the IC50 on Human LDHA is under 100 nM.

As to `Cc1cc(C#Cc2cccc(-c3nn(-c4nc(C(=O)O)cs4)c(CC4CC4)c3Cc3ccc(S(N)(=O)=O)c(F)c3)c2)c(C)s1` [Compound 241, 2-(5-(cyclopropylmethyl)-3-(3-((2,5-dimethylthiophen-3-yl)ethynyl)phenyl)-4-(3-fluoro-4-sulfamoylbenzyl)-1H-pyrazol-1-yl)thiazole-4-carboxylic acid], on Human LDHA, the IC50 was 100 to 1000 nM.

Turning to `Cc1ccc(C(=O)Cc2cccc(-c3nn(-c4nc(C(=O)O)cs4)c(CC4CC4)c3Cc3ccc(S(N)(=O)=O)c(F)c3)c2)s1` [Compound 242, 2-(5-(cyclopropylmethyl)-4-(3-fluoro-4-sulfamoylbenzyl)-3-(3-(2-(5-methylthiophen-2-yl)-2-oxoethyl)phenyl)-1H-pyrazol-1-yl)thiazole-4-carboxylic acid], the IC50 at Human LDHA was under 100 nM.

In the case of `Cc1nc(C#Cc2cccc(-c3nn(-c4nc(C(=O)O)cs4)c(CCC4CC4)c3Cc3ccc(S(N)(=O)=O)c(F)c3)c2)cs1` [Compound 243, 2-(5-(2-cyclopropylethyl)-4-(3-fluoro-4-sulfamoylbenzyl)-3-(3-((2-methylthiazol-4-yl)ethynyl)phenyl)-1H-pyrazol-1-yl)thiazole-4-carboxylic acid], on Human LDHA, the concentration for half-maximal inhibition (IC50) is under 100 nM.

`NS(=O)(=O)c1ccc(Cc2c(-c3cccc(C#Cc4ccc(C5CC5)s4)c3)nn(-c3nc(C(=O)O)cs3)c2CCC2CC2)cc1F` [Compound 244, 2-(5-(2-cyclopropylethyl)-3-(3-((5-cyclopropylthiophen-2-yl)ethynyl)phenyl)-4-(3-fluoro-4-sulfamoylbenzyl)-1H-pyrazol-1-yl)thiazole-4-carboxylic acid] gave an IC50 on Human LDHA of 100 to 1000 nM.

The compound `NS(=O)(=O)c1ccc(Cc2c(-c3cccc(C#Cc4ccc(C5CCC5)s4)c3)nn(-c3nc(C(=O)O)cs3)c2CC2CC2)cc1F` [Compound 245, 2-(3-(3-((5-cyclobutylthiophen-2-yl)ethynyl)phenyl)-5-(cyclopropylmethyl)-4-(3-fluoro-4-sulfamoylbenzyl)-1H-pyrazol-1-yl)thiazole-4-carboxylic acid] gave an IC50 against Human LDHA of 100 to 1000 nM.

As for `NS(=O)(=O)c1ccc(Cc2c(-c3cccc(C#Cc4ccc(C5CCC5)s4)c3)nn(-c3nc(C(=O)O)cs3)c2CCC2CC2)cc1F` [Compound 246, 2-(3-(3-((5-cyclobutylthiophen-2-yl)ethynyl)phenyl)-5-(2-cyclopropylethyl)-4-(3-fluoro-4-sulfamoylbenzyl)-1H-pyrazol-1-yl)thiazole-4-carboxylic acid], the IC50 at Human LDHA lay within 100 to 1000 nM.

Compound `Cc1ccc(C#Cc2cccc(-c3nn(-c4nc(C(=O)O)co4)c(CC4CC4)c3Cc3ccc(S(N)(=O)=O)c(F)c3)c2)s1` [Compound 247, 2-(5-(cyclopropylmethyl)-4-(3-fluoro-4-sulfamoylbenzyl)-3-(3-((5-methylthiophen-2-yl)ethynyl)phenyl)-1H-pyrazol-1-yl)oxazole-4-carboxylic acid] had an IC50 at Human LDHA of under 100 nM.

With `Cc1ccc(C#Cc2cccc(-c3nn(-c4nc(C(=O)O)cs4)c(CCCC4CC4)c3Cc3ccc(S(N)(=O)=O)c(F)c3)c2)s1` [Compound 248, 2-(5-(3-cyclopropylpropyl)-4-(3-fluoro-4-sulfamoylbenzyl)-3-(3-((5-methylthiophen-2-yl)ethynyl)phenyl)-1H-pyrazol-1-yl)thiazole-4-carboxylic acid], the IC50 against Human LDHA is 100 to 1000 nM.

For `Cc1ccc(C#Cc2cc(-c3nn(-c4nc(C(=O)O)cs4)c(CC4CC4)c3Cc3ccc(S(N)(=O)=O)c(F)c3)ccc2F)s1` [Compound 249, 2-(5-(cyclopropylmethyl)-3-(4-fluoro-3-((5-methylthiophen-2-yl)ethynyl)phenyl)-4-(3-fluoro-4-sulfamoylbenzyl)-1H-pyrazol-1-yl)thiazole-4-carboxylic acid], on Human LDHA, the IC50 was under 100 nM.

As usually defined, the IC50 is the midpoint of a concentration-inhibition curve. Read a high IC50 as weaker potency in that assay.

Source of the values: patent US10954228B2 (NATIONAL INSTITUTES OF HEALTH, UNITED STATES DEPARTMENT OF …, priority 2016, dated 2021).
